Laboratory results published in patent US9284325B2, “Spectinamides as anti-tuberculosis agents” (UNIVERSITY OF TENNESSEE RESEARCH FOUNDATION, priority 2009, dated 2016).
Counter-ions that a name gives are not always drawn.

System: M. tuberculosis drug-resistant strains and mutants
Format: cell-based, Mycobacterium tuberculosis

`CN[C@@H]1[C@H](O)[C@H](NC)C2O[C@]3(O)C(OC2[C@H]1O)O[C@H](C)C[C@H]3NC(=O)Cc1ccccn1` (stereo partly drawn) [Compound 1329, 3′-Dihydro-3′-deoxy-4(R)-(pyridin-2yl)acetylamino spectinomycin Dihydrochloride] was tested, and the “cross resistance with first-line TB drugs isoniazid, rifampicin and ethambutol” value was “no cross resistance”, the “susceptibility of spontaneous streptomycin mutants incl. ATCC 35820” value was “highly susceptible” and the “Activity (MIC) of 1329 compared to streptomycin” value (Dihydrochloride) was >200.
